Results published in ChEMBL document CHEMBL1147395, “Three New Toxic Pinolidoxins from Ascochyta pinodes” (J Nat Prod, 1993).
Active and inactive are the calls of the source. The calls are words filed in the database; no cut-off is given here.

Tests used:
Geotrichum candidum = test: Antifungal activity against Geotrichum candidum up to 120 ug/ml; format: functional, organism-based
Pisum sativum = test: Phytotoxicity against pea leaves assessed as necrotic lesion at 15 ug/15 ul after 48 hrs by leaf puncture assay; format: functional, organism-based; conditions: Lathyrus oleraceus
Artemia salina [1] = test: Toxicity in Artemia salina at 5 ug/ml; format: organism-based; conditions: in vivo
Fabaceae = test: Phytotoxicity against beans leaves assessed as necrotic lesion at 15 ug/15 ul after 48 hrs by leaf puncture assay; format: functional, organism-based
Artemia salina [2] = test: Toxicity in Artemia salina at 50 ug/ml; format: organism-based; conditions: in vivo

For `C/C=C/C=C/C(=O)O[C@H]1CCCC[C@H](O)[C@H](O)[C@@H](CCC)OC1=O`, the Activity (Geotrichum candidum) was “inactive”, the Activity (Pisum sativum) was “Toxic” and the Activity (Artemia salina [1]) was “Non-toxic”. For the same compound, the Activity (Fabaceae) was “Toxic”.
In the case of `C/C=C/C=C/C(=O)O[C@H]1CCC2OC2[C@H](O)[C@H](O)[C@@H](CCC)OC1=O` (some centres undefined), the Activity (Geotrichum candidum) is reported as “inactive”, the Activity (Artemia salina [2]) is reported as “Toxic” and the Activity (Artemia salina [1]) is reported as “Non-toxic”.
For `C/C=C/C=C/C(=O)O[C@H]1CC/C=C/[C@H](O)[C@H](O)[C@@H](CCC)OC1=O` [PINOLIDOXIN], the Activity (Geotrichum candidum) was “inactive” and the Activity (Artemia salina [1]) was “Non-toxic”.
With `C/C=C/C=C/C(=O)O[C@H]1CC/C=C/[C@@H](O)[C@H](O)[C@@H](CCC)OC1=O` the Activity (Geotrichum candidum) was “inactive”, the Activity (Artemia salina [2]) was “Toxic” and the Activity (Pisum sativum) was “Toxic”. For the same compound, the Activity (Artemia salina [1]) was “Non-toxic” and the Activity (Fabaceae) was “Toxic”.
